Like-named read-outs stand apart in the source and are kept apart here.
Tests used:
[1] = target: T1, NA2009wt (recombinant neuraminidase) (Influenza A virus, UniProt C3W6G3); experiment: biochemical; format: biochemical, A/California/07/2009 (H1N1) influenza virus; conditions: for Ki values, fluorometric assay, as described in the text / decrease in potency relative to oseltamivir carboxylate (4): pH 6.15; for Ki values, fluorometric assay, as described in the text: units given in the value; for decrease in potency relative to oseltamivir carboxylate (4): fluorometric assay
[2] = target: T1, NA2009wt (recombinant neuraminidase); experiment: biochemical; format: binding, A/California/07/2009 (H1N1) influenza virus

Row | Compound | Ki values, fluorometric assay, as described in the text [1] | Ki [1] | Ki [2] | decrease in potency relative to oseltamivir carboxylate (4) [1]
1 | CCC(CC)O[C@@H]1C=C(C(=O)O)C[C@H](N[C@@H](CC(=O)O)C(=O)O)[C@H]1NC(C)=O (mixture of isomers) [compound 10] | micromolar range | – | – | –
2 | CCC(CC)O[C@@H]1C=C(P(=O)(O)O)C[C@H](N)[C@H]1NC(C)=O [compound 2, tamiphosphor, reference compound] | – | 26 ± 4 nM | 52 ± 9 nM | –
3 | CCC(CC)O[C@@H]1C=C(C(=O)O)C[C@H](N[C@@H](C)C(=O)O)[C@H]1NC(C)=O [compound 8] | – | 15 ± 2 nM | 170 ± 60 nM | comparable to that of oseltamivir carboxylate
4 | CCC(CC)O[C@@H]1C=C(C(=O)O)C[C@H](N[C@H](C)C(=O)O)[C@H]1NC(C)=O [compound 9] | – | 250 ± 40 nM | 960 ± 260 nM | ~10 fold
5 | CCC(CC)O[C@@H]1C=C(C(=O)O)C[C@H](NC(=O)COCCOCCOC)[C@H]1NC(C)=O [compound 11] | micromolar range | – | – | –
